Experimental findings from patent US20230203025A1, “ENHANCERS OF PARTICULATE GUANYLYL CYCLASE RECEPTOR A” (Mayo Foundation for Medical Education and Research, priority 2020, published 2023) are described below.

For orientation: Kd means the free concentration of one partner at which half of the binding sites on the other are occupied at equilibrium, for simple one-to-one binding.

The target in experiment [1] is T1, particulate guanylyl cyclase B receptor (pGC-B) (Homo sapiens, UniProt P20594).
T1 construct: expressed in transfected cells; host or cells: HEK
T1 sequence (P20594 23-1047): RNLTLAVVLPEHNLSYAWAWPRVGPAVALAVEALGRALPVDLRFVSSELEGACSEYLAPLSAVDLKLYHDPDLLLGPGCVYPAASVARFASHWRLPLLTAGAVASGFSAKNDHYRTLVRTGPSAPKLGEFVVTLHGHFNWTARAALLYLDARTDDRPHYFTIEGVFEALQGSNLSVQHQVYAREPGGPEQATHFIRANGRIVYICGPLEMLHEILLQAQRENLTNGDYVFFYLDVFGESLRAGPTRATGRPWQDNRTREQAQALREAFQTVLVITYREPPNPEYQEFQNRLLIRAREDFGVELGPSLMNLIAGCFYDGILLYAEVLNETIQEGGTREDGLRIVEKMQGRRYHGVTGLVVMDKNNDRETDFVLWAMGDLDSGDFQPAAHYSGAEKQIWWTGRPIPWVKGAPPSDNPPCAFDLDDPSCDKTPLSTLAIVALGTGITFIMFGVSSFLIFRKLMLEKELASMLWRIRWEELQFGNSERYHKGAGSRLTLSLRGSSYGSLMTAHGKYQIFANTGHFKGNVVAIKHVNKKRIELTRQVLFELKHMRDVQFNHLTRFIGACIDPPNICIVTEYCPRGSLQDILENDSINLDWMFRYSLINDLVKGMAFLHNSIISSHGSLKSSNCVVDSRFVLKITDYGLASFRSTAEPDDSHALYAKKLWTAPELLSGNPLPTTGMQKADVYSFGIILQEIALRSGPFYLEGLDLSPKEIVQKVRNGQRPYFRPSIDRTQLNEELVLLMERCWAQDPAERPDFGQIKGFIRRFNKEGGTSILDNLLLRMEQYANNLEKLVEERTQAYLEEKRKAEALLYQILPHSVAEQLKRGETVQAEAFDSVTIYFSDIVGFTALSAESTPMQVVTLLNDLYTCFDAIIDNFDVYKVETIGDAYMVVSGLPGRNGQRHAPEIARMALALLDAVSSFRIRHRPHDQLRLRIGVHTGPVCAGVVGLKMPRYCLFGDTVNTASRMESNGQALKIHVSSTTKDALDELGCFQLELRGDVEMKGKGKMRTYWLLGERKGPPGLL
As to the kind of experiment: cGMP selectivity assay in HEK cells overexpressing pGC-B with CNP. Format: cell-based. The following applies: in the presence of CNP.

Experiment [2] deals with T2, extracellular domain human GC-A recombinant protein (Homo sapiens, UniProt P16066).
T2 construct: extracellular domain human GC-A recombinant protein; purchased MyBioSource, Inc
T2 sequence (P16066 33-473 limits assumed): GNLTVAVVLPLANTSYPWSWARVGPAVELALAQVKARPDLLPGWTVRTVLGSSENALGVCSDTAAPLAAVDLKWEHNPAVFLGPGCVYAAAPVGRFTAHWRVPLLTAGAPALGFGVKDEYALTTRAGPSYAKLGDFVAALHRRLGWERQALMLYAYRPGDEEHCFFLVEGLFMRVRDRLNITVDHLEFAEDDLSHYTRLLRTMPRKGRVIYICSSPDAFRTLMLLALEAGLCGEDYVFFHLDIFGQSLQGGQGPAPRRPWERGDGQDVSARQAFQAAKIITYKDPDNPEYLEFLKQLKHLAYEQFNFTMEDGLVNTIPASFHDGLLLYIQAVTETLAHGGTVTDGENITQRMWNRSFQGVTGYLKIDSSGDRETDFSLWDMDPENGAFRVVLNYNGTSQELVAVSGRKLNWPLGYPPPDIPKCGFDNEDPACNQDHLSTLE
The experiment in a line: SPR GC-A binding studies (Example 7). Conditions: Compound 19 alone, His-tagged GC-A on Ni-NTA chip. The method, then:
Methods (GC-A Binding Studies): Surface plasmon resonance (SPR) measurements were performed at 25° C. on a BI-4500 SPR instrument (Biosensing Instrument Inc. Tempe AZ). […] Data was collected as sensorgrams. Binding kinetics were derived from sensorgrams using BI-Data Analysis Program (Biosensing Instrument, Tempe Ariz.).

Experiment [3] deals with primary human renal proximal tubular cells (HRPTCs). The experiment in a line: cGMP generation in primary human renal proximal tubular cells. Format: cell-based. From the text: HRPTCs represent an important human cell line as renal tubular injury and apoptosis leads to impaired renal function and structure.
In experiment [4] the test system is human visceral adipocytes. The experiment in a line: browning and glycerol production in human visceral adipocytes. It is filed as cell-based.

With `CN(C)CCN1CCCC(C(=O)Nc2nc3c(F)cc(F)cc3s2)C1` (stereo not drawn) [Compound 19], in experiment [1], the “cGMP activity in cells expressing pGC-B” value is “devoid of cGMP activity”. In addition, the Kd in experiment [2] turned out to be 390 nM. Further, the cGMP generation result in experiment [3] (HRPTCs, 1, 5 or 10 μM compound in the presence of ANP (10^−10 M)) is “clear increase in cGMP generation”; in experiment [3] (HRPTCs, compound alone at similar dose, no ANP), “did not generate cGMP generation”. Besides, the “expression of the browning protein UCP1” value in experiment [4] (compound 19 added to ANP) is recorded as “augmented UCPI expression”. For the same compound, in experiment [4] (compound 19 with ANP, not illustrated), the “ANP induction of glycerol” value was “dose dependently increased”.
